From patent US20050267303A1, “Cyclic indole and heteroindole derivatives and methods for making and using as pharmaceuticals” (Zentaris AG, priority 2001, published 2005)

Assays:
[1] = test system: HeLa/KB (CCL17) cells; experiment: XTT cytotoxicity (proliferation) test, HeLa/KB; format: cell-based, human; conditions: for anti-proliferative effect (summary in words of Table 1): 3.16 μg/mL, over cell lines HeLa/KB, SK-OV-3, MCF-7, L1210; for percentage inhibition KB/HeLa: concentration 3.16 μg/mL, 45 h incubation
Text: (§1) The substances D-70260, D-70744, D-80815, D-80816 and D-80819 (Examples C2.3, D4, F2, F3 and F4) were investigated in a proliferation test (Scudiero, et al., Cancer Res., 48: 4827-33, 1987) using established tumor cell lines and their anti-proliferative activity was investigated. The test used determines the mitochondrial dehydrogenase activity and enables the cell vitality and, indirectly, the cell count to be determined. The cell lines used are the human cell lines HeLa/KB (CCL17), SK-OV-3 (HTB77), MCF-7 (HTB22) and the murine leukemia cell line L1210 (CCL219). These are very well characterized and established cell lines, which were obtained from ATCC and cultured.
(§2) XTT Test for Cellular Dehydrogenase Activity
(§3) The adherent, growing, tumor cell lines HeLa/KB, SK-OV-3, MCF-7, L1210 and RKO were cultured under standard conditions in an incubator with gas inlet at 37° C., 5% carbon dioxide and 95% relative humidity. On day 1 of the experiment, the cells were detached with trypsin/EDTA and palletized by centrifuging. Subsequently, the cell pellet is re-suspended in the respective culture medium in the appropriate cell count and transferred into a 96-well microtiter plate. The plates are then cultured overnight in the incubator with gas inlet. The test substances are used as a 10 mM stock solution in DMSO and diluted on the second day of the experiment with culture medium to the appropriate concentrations. The substances in the culture medium are then added to the cells and incubated for 45 hours in the incubator with gas inlet. The cells, which were not treated with test substances, were used as controls. For the XTT-Assay, 1 mg/mL of XTT (sodium 3′-[1-(phenylaminocarbonyl)-3,4-tetrazolium]-bis(4-methoxy-6-nitro) benzenesulfonic acid) in RPMI-1640 medium was dissolved without phenol red. Additionally, a 0.383 mg/mL PMS (N-methyl dibenzopyrazine methyl sulfate) solution in phosphate buffer cell solution (PBS) was prepared. On the fourth day of the experiment, 75 μL/well of XTT-PMS mixture was pipetted onto the cell plates, which had meanwhile been incubated for 45 hours with the test substances. For this purposes, the XTT solution is mixed with the PMS solution in a ratio of 50:1 (v: v) shortly before use. Subsequently the cell plates are incubated in the incubator with gas inlet for a further three hours and the optical density (OD490nm) is determined in a photometer.
(§4) The percentage inhibition relative to the control is calculated by means of the OD490nm, which has been determined, and the activity is plotted against the log of a concentration. The IC50 is calculated from the concentration-activity curve by means of a regression analysis using the Graphpad program.

[2] = test system: SK-OV-3 (HTB77) cells; experiment: XTT cytotoxicity (proliferation) test, SK-OV-3; format: cell-based; conditions: Homo sapiens, concentration 3.16 μg/mL, 45 h incubation, read-out: percentage inhibition SK-OV-3
Text: as §1, §2, §3, §4

[3] = test system: MCF-7 (HTB22) cells; experiment: XTT cytotoxicity (proliferation) test, MCF-7; format: cell-based; conditions: Homo sapiens, MCF7, concentration 3.16 μg/mL, 45 h incubation, read-out: percentage inhibition MCF-7
Text: as §1, §2, §3, §4

[4] = test system: murine leukemia cell line L1210 (CCL219); experiment: XTT cytotoxicity (proliferation) test, L1210; format: cell-based; conditions: Mus musculus, concentration 3.16 μg/mL, 45 h incubation, read-out: percentage inhibition L1210
Text: as §1, §2, §3, §4

[5] = test system: HeLa/KB cells in hollow fibers; experiment: Hollow fiber model in vivo (nude mouse), HeLa/KB; design: species or system human
Protocol: (§5) In order to determine the availability and effectiveness in the animal model (nude mouse), the cell lines HeLa/KB, MCF-7 and L1210 were cultured in hollow fibers, which are implanted i.p. or s.c. (Hollingshead et al., Life Sciences 57, 131-41, 1995). The test substance D-80816 is administered four times […]. in a dose of 100 mg/kg. At the end of the therapy on day 5, the fibers are explanted and the cell vitality of the tumor cells obtained is determined by means of the XTT assay. For D-80816, there is a maximum inhibition of 100% for all the cell lines and implantation cites and a general toxicity of LD50>1000 mg/kg (i.p.).
(§6) Determination of the Anti-Proliferative Activity in the Hollow Fiber Model in vivo
(§7) The tumor cells lines HeLa/KB, MCF-7 and L1210 are added to polyvinylidene fluoride hollow fibers (5×10^6 cells/mL) and transplanted into the physiological compartments of the nude mouse (intraperitoneally, i.p., or subcutaneously, s.c.). A total of six hollow fibers (3 i.p. and 3 s.c.) with the respective tumor cell lines is transplanted into each experimental animal. One group of six animals is treated with the test substance (i.p. once daily for a total of 4 days) (ok?). The animals, which have been treated only with the solvent tylose, acted as control. The hollow fibers are explanted one day after the last application of substance. The proportion of metabolism-active, vital cells is determined for each hollow fiber by means of the XTT assay (see above). From this, the anti-tumor activity of the test substance is determined as the percent inhibition relative to the control.

[6] = test system: L1210 cells in hollow fibers; experiment: Hollow fiber model in vivo (nude mouse), L1210; design: species or system murine; conditions: dose 4 × 100 mg/kg i.p., explanted day 5
Protocol: as §5, §6
as §7, with “One group of six animals is treated with the test substance (i.p. once daily for a total of 4 days) (ok?). The animals, which have been treated only with the solvent tylose, acted as control. The hollow fibers are explanted one day after the last application of substance.” left out

[7] = test system: MCF-7 cells in hollow fibers; experiment: Hollow fiber model in vivo (nude mouse), MCF-7; design: species or system human; conditions: dose 4 × 100 mg/kg i.p., explanted day 5
Protocol: as §5, §6
as §7, with “One group of six animals is treated with the test substance (i.p. once daily for a total of 4 days) (ok?). The animals, which have been treated only with the solvent tylose, acted as control. The hollow fibers are explanted one day after the last application of substance.” left out

[8] = General toxicity LD50 (i.p.); conditions: nude, mouse, in vivo, ip, read-out: LD 50 (general toxicity)
Protocol: as §5

[9] = test system: RKOp27 cells (RKO colon carcinoma line with inducible p27Kip1); experiment: Cell cycle analysis in the RKOp27 model (XTT readout); format: cell-based, human
Text: The RKO is a human, colon carcinoma line, in which the cell cycle inhibitor p27^KiPI is induced to express by means of the Ecdyson expression system and leads to a cell cycle arrest specifically in GI (FIG. 2). A substance with non-specific activity inhibits the proliferation independently of whether the RKO cell in GI is arrested or not. On the other hand, cell cycle-specific substances, such as tubulin inhibitors, are cytotoxic only when the cells are not arrested and the cells pass through the cycle. […] Therefore, a defined, molecular, activity mechanism of D-80816 and its derivatives must be assumed. [drawing] [drawing]
Cell Cycle Analysis by Means of the RKOp27 Model
The assay is carried out in 96-well plates. The growth of the cells is arrested completely by the expression of p27^kiP1, which can be induced. […] By comparing the effectiveness of induced and not-induced cells, conclusions can be drawn concerning the mechanism of action (cell cycle specificity) of the therapeutic agents. Cells, which have […], were disseminated in an approximately 4 times higher cell count than uninduced cells, since there no longer is a division during the assay (2×10^4 cells/well induced, about 0.6×10^4 cells/well not induced). The controls are untreated cells (+/−induction). The induction is carried out with 3 μM of muristerone A. The cells are exposed on the first day (+/−muristerone A) and incubated for 24 hours at 37° C. The test substance is added on the second day (control DMSO) and the incubation is continued for a further 48 hours at 37° C., before the standard XTT assay is carried out (see above).

Row | Structure (SMILES) | melting point | anti-proliferative effect (summary in words of Table 1) [1] | percentage inhibition KB/HeLa [1] | inhibition at 3.16 µg/mL [2] | inhibition at 3.16 µg/mL [3] | inhibition at 3.16 µg/mL [4] | other results
1 | COc1ccc2c(c1)cc1c(-c3ccc(Cl)cc3)nn(-c3ccccc3)c(=O)n12 | 155 to 158 °C | – | – | – | – | – | –
2 | COc1ccc2c(c1)cc1c(C)noc(=O)n12 [Example C2.1, 3-methyl-1,2,5-oxadiazino[4,5-α](5-methoxyindole)-6-one] | 217 to 220 °C | – | – | – | – | – | –
3 | CCc1noc(=O)n2c1cc1cc(OC)ccc12 [Example C2.2, 3-ethyl-1,2,5-oxadiazino[4,5-α](5-methoxyindole)-6-one] | 208 to 212 °C | – | – | – | – | – | –
4 | COc1ccc2c(c1)cc1c(-c3ccccc3)noc(=O)n12 [Example C2.3, 3-phenyl-1,2,5-oxadiazino[4,5α](5-methoxyindole)-6-one] | 198 to 200 °C | very potent anti-proliferative effect | 90.7% | 68.9% | 4.1% | 91.3% | –
5 | COc1ccccc1-c1noc(=O)n2c1cc1ccccc12 [Example D1, 3-(2-methoxyphenyl)-1,2,5-oxadiazino[4,5α]indole-6-one] | 160 to 162 °C | – | – | – | – | – | –
6 | COc1cccc(-c2noc(=O)n3c2cc2ccccc23)c1 [Example D2, 3-(3-methoxyphenyl)-1,2,5-oxadiazino[4,5α]indole-6-one] | 129 to 130 °C | – | – | – | – | – | –
7 | COc1cccc(-c2noc(=O)n3c2cc2cc(OC)ccc23)c1 [Example D3, 3-(3-methoxyphenyl)-1,2,5-oxadiazino[4,5α](5-methoxyindole)-6-one] | 171 to 173 °C | – | – | – | – | – | –
8 | COc1ccc2c(c1)cc1c(-c3ccc(Cl)cc3)noc(=O)n12 [Example D4, 3-(4-chlorophenyl)-1,2,5-oxadiazino[4,5α](5-methoxyindole)-6-one] | 227 to 230 °C | very potent anti-proliferative effect | 74.6% | 55.2% | 1.9% | 77.1% | –
9 | COc1ccc2c(c1)cc1n2C(=O)C(c2ccccc2)=C1c1ccc(Cl)cc1 [Example F1, 1-(4-chlorophenyl)-6-methoxy-2-phenyl-3a-aza-cyclopenta[a]indene-3-one] | 152 to 155 °C | – | – | – | – | – | –
10 | COc1cccc(C2=C(c3ccccc3)C(=O)n3c2cc2cc(OC)ccc23)c1 [Example F2, 6-methoxy-1-(3-methoxyphenyl)-2-phenyl-3a-aza-cyclopenta[a]indene-3-one] | 111 to 113 °C | do not show a significant effect | 1.7% | 0% | 8.1% | 0% | –
11 | COc1cccc(C2=C(c3cccc(OC)c3)c3cc4cc(OC)ccc4n3C2=O)c1 [Example F3, 6-methoxy-1,2-bis-(3-methoxyphenyl)-3a-aza-cyclopenta[a]indene-3-one] | – | very potent anti-proliferative effect | 91.7% | 66.1% | 18.2% | 94.7% | maximum inhibition in hollow fiber model ([5]; all the cell lines (HeLa/KB, MCF-7, L1210) and implantation sites (i.p., s.c.), 4 × 100 mg/kg): 100%; Proliferation Inhibition in hollow Fibers, KB (i.p.) ([5]; fibers implanted i.p., dose 4 × 100 mg/kg i.p., explanted day 5): 100%; Proliferation Inhibition in hollow Fibers, KB (s.c.) ([5]; fibers implanted s.c., dose 4 × 100 mg/kg i.p., explanted day 5): 100%; Proliferation Inhibition in hollow Fibers, L1210 (i.p.) ([6]; fibers implanted i.p.): 100%; Proliferation Inhibition in hollow Fibers, L1210 (s.c.) ([6]; fibers implanted s.c.): 100%; Proliferation Inhibition in hollow Fibers, MCF7 (i.p.) ([7]; fibers implanted i.p.): 100%; Proliferation Inhibition in hollow Fibers, MCF7 (s.c.) ([7]; fibers implanted s.c.): 100%; LD50 [8]: > 1000 mg/kg; LD50 at 5 days [8]: > 100 mg/kg; anti-proliferative effect in cells arrested in G1 ([9]; RKOp27 cells induced with 3 μM muristerone A (p27 expression, G1 arrest), 48 h, XTT): cannot be measured; anti-proliferative effect in cells not induced ([9]; RKOp27 cells not induced, 48 h, XTT): concentration-dependent anti-proliferative effect; cell cycle-specific activity ([9]; comparison of induced (G1-arrested) and not induced RKOp27 cells): cell cycle-specific activity
12 | COc1ccc(C2=C(c3ccc(F)cc3)C(=O)n3c2cc2cc(OC)ccc23)cc1 [Example F4, 2-(4-florophenyl)-6-methoxy-1-(4-methoxyphenyl)-3a-aza-cyclopenta[a]indene-3-one] | 157 to 160 °C | do not show a significant effect | 0% | 6.6% | 0% | 21.8% | –
